Data from patent publication US11297838B2, “Pesticidal compositions and methods” (CORTEVA AGRISCIENCE LLC, priority 2018, dated 2022).

Key:
[1] = tested on: Beet Armyworm (Spodoptera exigua, LAPHEG); experiment: Insecticidal test for beet armyworm (BAW), 128-well diet tray assay; assay type: in vivo; conditions: 168 h, 50 μg/cm^2 on artificial diet, second instar larvae, five to seven days, 25° C., read-out: BAW rating, % Control (or Mortality)
Method: Insecticidal Test for Beet Armyworm (Spodoptera exigua, LAPHEG) (“BAW”)
Bioassays on beet armyworm (BAW; Spodoptera exigua: Lepidoptera) are conducted using a 128-well diet tray assay. One to five second instar BAW larvae are placed in each well (3 mL) of the diet tray that had been previously filled with 1 mL of artificial diet to which 50 μg/cm^2 of the test compound (dissolved in 50 μL of 90:10 acetone-water mixture) had been applied (to each of eight wells) and then allowed to dry. Trays are covered with a clear self-adhesive cover, vented to allow gas exchange, and held at 25° C., 14:10 light-dark for five to seven days. Percent mortality is recorded for the larvae in each well; activity in the eight wells is then averaged. In the reporting of the results, the “BAW & CL Rating Table” was used.

[2] = tested on: Cabbage Looper (Trichloplusia ni, TRIPNI); experiment: Insecticidal test for cabbage looper (CL), 128-well diet tray assay; assay type: in vivo; conditions: Trichoplusia ni, 168 h; 50 μg/cm^2 on artificial diet, second instar larvae, five to seven days, 25° C.; read-out: CL rating, % Control (or Mortality)
Method: Insecticidal Test for Cabbage Looper (Trichloplusia ni, TRIPNI) (“CL”)
Bioassays on cabbage looper (CL; Trichloplusia ni: Lepidoptera) are conducted using a 128-well diet tray assay. One to five second instar CL larvae are placed in each well (3 mL) of the diet tray that had been previously filled with 1 mL of artificial diet to which 50 μg/cm^2 of the test compound (dissolved in 50 μL of 90:10 acetone-water mixture) had been applied (to each of eight wells) and then allowed to dry. Trays are covered with a clear self-adhesive cover, vented to allow gas exchange, and held at 25° C., 14:10 light-dark for five to seven days. Percent mortality is recorded for the larvae in each well; activity in the eight wells is then averaged. In the reporting of the results, the “BAW & CL Rating Table” was used.

SMILES: CC(C)c1ccc(Cl)cc1N1C(=O)CS/C1=N\C(=O)OCC(F)c1ccc(-c2ncn(-c3ccc(OC(F)(F)C(F)(F)F)cc3)n2)cc1 (stereo not drawn) [A25, 2-Fluoro-2-(4-(1-(4-(perfluoroethoxy)phenyl)-1H-1,2,4-triazol-3-yl)phenyl)ethyl (Z)-(3-(5-chloro-2-isopropylphenyl)-4-oxothiazolidin-2-ylidene)carbamate]
- mortality at 50 µg/cm2 [1]: 50 to 100%
- mortality at 50 µg/cm2 [2]: 0 to 50%

SMILES: Cc1ccc(C(C)C)c(N2C(=O)CS/C2=N\C(=O)OCC(F)(F)c2ccc(-c3ncn(-c4ccc(OC(F)(F)F)cc4)n3)cc2)c1 [A4, 2,2-difluoro-2-(4-(1-(4-(trifluoromethoxy)phenyl)-1H-1,2,4-triazol-3-yl)phenyl)ethyl (Z)-(3-(2-isopropyl-5-methylphenyl)-4-oxothiazolidin-2-ylidene)carbamate]
- mortality at 50 µg/cm2 [1]: 50 to 100%
- mortality at 50 µg/cm2 [2]: 50 to 100%

SMILES: CC(C)c1ccccc1N1C(=O)CS/C1=N\C(=O)OCCc1ccc(-c2ncn(-c3ccc(OC(F)(F)C(F)(F)F)cc3)n2)cc1 [A45, 4-(1-(4-(Perfluoroethoxy)phenyl)-1H-1,2,4-triazol-3-yl)phenethyl (Z)-(3-(2-isopropylphenyl)-4-oxothiazolidin-2-ylidene)carbamate]
- mortality at 50 µg/cm2 [1]: 50 to 100%
- mortality at 50 µg/cm2 [2]: 50 to 100%

SMILES: O=C(/N=C1\SCC(=O)N1c1cc(Cl)ccc1OC(F)(F)F)OCC(F)c1ccc(-c2ncn(-c3ccc(OC(F)(F)F)cc3)n2)cc1 (stereo not drawn) [A36, 2-Fluoro-2-(4-(1-(4-(trifluoromethoxy)phenyl)-1H-1,2,4-triazol-3-yl)phenyl)ethyl (Z)-(3-(5-chloro-2-(trifluoromethoxy)phenyl)-4-oxothiazolidin-2-ylidene)carbamate]
- mortality at 50 µg/cm2 [1]: 50 to 100%
- mortality at 50 µg/cm2 [2]: 50 to 100%

SMILES: CCC(C)Oc1ccc(C)cc1N1C(=O)CS/C1=N\C(=O)OCCc1ccc(-c2ncn(-c3ccc(OC(F)(F)F)cc3)n2)cc1 (stereo not drawn) [A35, 4-(1-(4-(Trifluoromethoxy)phenyl)-1H-1,2,4-triazol-3-yl)phenethyl (Z)-(3-(2-(sec-butoxy)-5-methylphenyl)-4-oxothiazolidin-2-ylidene)carbamate]
- mortality at 50 µg/cm2 [1]: 50 to 100%
- mortality at 50 µg/cm2 [2]: 50 to 100%

SMILES: CCOc1ccccc1N1C(=O)CS/C1=N\C(=O)OCC(F)c1ccc(-c2ncn(-c3ccc(OC(F)(F)F)cc3)n2)cc1 (stereo not drawn) [A40, 2-Fluoro-2-(4-(1-(4-(trifluoromethoxy)phenyl)-1H-1,2,4-triazol-3-yl)phenyl)ethyl (Z)-(3-(2-ethoxyphenyl)-4-oxothiazolidin-2-ylidene)carbamate]
- mortality at 50 µg/cm2 [1]: 50 to 100%
- mortality at 50 µg/cm2 [2]: 50 to 100%

SMILES: Cc1ccc(OCC(F)(F)F)c(N2C(=O)CS/C2=N\C(=O)OCCc2ccc(-c3ncn(-c4ccc(OC(F)(F)F)cc4)n3)cc2)c1 [A31, 4-(1-(4-(Trifluoromethoxy)phenyl)-1H-1,2,4-triazol-3-yl)phenethyl (Z)-(3-(5-methyl-2-(2,2,2-trifluoroethoxy)phenyl)-4-oxothiazolidin-2-ylidene)carbamate]
- mortality at 50 µg/cm2 [1]: 50 to 100%
- mortality at 50 µg/cm2 [2]: 50 to 100%

SMILES: CC(C)c1ccc(Cl)cc1N1C(=O)CS/C1=N\C(=O)OCC(F)c1ccc(-c2ncn(-c3ccc(OC(F)(F)F)cc3)n2)cc1 (stereo not drawn) [A23, 2-Fluoro-2-(4-(1-(4-(trifluoromethoxy)phenyl)-1H-1,2,4-triazol-3-yl)phenyl)ethyl (Z)-(3-(5-chloro-2-isopropylphenyl)-4-oxothiazolidin-2-ylidene)carbamate]
- mortality at 50 µg/cm2 [1]: 50 to 100%
- mortality at 50 µg/cm2 [2]: 50 to 100%

SMILES: O=C(/N=C1\SCC(=O)N1c1cc(Cl)ccc1OC(F)(F)F)OCCc1ccc(-c2ncn(-c3ccc(OC(F)(F)F)cc3)n2)cc1 [A29, 4-(1-(4-(Trifluoromethoxy)phenyl)-1H-1,2,4-triazol-3-yl)phenethyl (Z)-(3-(5-chloro-2-(trifluoromethoxy)phenyl)-4-oxothiazolidin-2-ylidene)carbamate]
- mortality at 50 µg/cm2 [1]: 50 to 100%
- mortality at 50 µg/cm2 [2]: 50 to 100%
